Experiments:
Bhas42 cells = experiment: Carcinogenicity prediction test (transformation test based on OECD GD231); type: cell-based; conditions: in vitro
Protocol: Using the aldehyde compositions obtained in Examples and Lilial (3-(p-tert-butylphenyl)-2-methylpropanal), a transformation test (an in vitro carcinogenicity prediction test using Bhas42 cells) was performed based on OECD GD231 to determine whether the carcinogenicity was negative or positive. When the result of this test is negative, it is predicted that there is no possibility of causing carcinogenicity, and safety is high.

[1] = Evaluation of threshold of smell; conditions: diluted with dipropylene glycol; lower limit concentration at which smell can be distinguished
Protocol: A filter paper having a width of 8 mm and a length of 15 cm was impregnated with each diluent and a lower limit concentration at which smell can be distinguished by a method in which a specialized panelist sniffs was evaluated. As the lower limit concentration is lower, the threshold of smell is lower, and the intensity and diffusibility of the aroma are more excellent.

CC(C=O)Cc1ccc(C(C)(C)C)cc1 (centres unmarked) [Comparative Example 5, 3-(p-tert-butylphenyl)-2-methylpropanal]
Carcinogenicity prediction test (Bhas42 cells): Positive | Threshold of smell [1]: 1 ppm

Source: patent US20240391859A1, “ALDEHYDE COMPOSITION” (MITSUBISHI GAS CHEMICAL COMPANY, INC., priority 2021, published 2024)
